Assay results as given in ChEMBL document CHEMBL5649169 (ChemMedChem, 2018).

Tests used:
[1] = molecular target: 26S proteasome regulatory subunit 6A (Homo sapiens) (UniProt P17980); also: assay method not described here
[2] = molecular target: Large ribosomal subunit protein uL22 (Homo sapiens) (UniProt P18621); also: assay method not described here
[3] = molecular target: MMS19 nucleotide excision repair protein homolog (Homo sapiens) (UniProt Q96T76); also: assay method not described here
[4] = molecular target: Propionyl-CoA carboxylase alpha chain, mitochondrial (Homo sapiens) (UniProt P05165); also: assay method not described here
[5] = molecular target: Non-receptor tyrosine-protein kinase TNK1 (Homo sapiens) (UniProt Q13470); also: assay method not described here
Sequence of Non-receptor tyrosine-protein kinase TNK1 (Homo sapiens) (Q13470 whole entry): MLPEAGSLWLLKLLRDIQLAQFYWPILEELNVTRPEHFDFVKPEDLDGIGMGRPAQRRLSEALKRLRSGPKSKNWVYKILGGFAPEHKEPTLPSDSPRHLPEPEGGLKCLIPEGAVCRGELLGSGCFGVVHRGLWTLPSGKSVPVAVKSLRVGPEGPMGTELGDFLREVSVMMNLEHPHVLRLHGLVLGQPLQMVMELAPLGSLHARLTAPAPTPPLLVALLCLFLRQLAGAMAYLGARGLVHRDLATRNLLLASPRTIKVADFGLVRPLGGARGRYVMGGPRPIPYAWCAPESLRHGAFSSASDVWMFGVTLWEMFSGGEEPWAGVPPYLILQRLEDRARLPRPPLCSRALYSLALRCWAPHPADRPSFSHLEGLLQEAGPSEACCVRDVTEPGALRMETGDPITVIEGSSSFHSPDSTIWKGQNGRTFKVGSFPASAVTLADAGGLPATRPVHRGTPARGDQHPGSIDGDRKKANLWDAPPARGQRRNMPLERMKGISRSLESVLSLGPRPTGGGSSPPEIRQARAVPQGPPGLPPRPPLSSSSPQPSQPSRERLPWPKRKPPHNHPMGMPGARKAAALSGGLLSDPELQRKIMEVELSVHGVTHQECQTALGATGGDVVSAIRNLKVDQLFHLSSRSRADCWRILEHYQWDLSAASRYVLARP

[6] = molecular target: RNA-binding protein EWS (Homo sapiens) (UniProt Q01844); also: assay method not described here
Sequence of RNA-binding protein EWS (Homo sapiens) (Q01844 whole entry): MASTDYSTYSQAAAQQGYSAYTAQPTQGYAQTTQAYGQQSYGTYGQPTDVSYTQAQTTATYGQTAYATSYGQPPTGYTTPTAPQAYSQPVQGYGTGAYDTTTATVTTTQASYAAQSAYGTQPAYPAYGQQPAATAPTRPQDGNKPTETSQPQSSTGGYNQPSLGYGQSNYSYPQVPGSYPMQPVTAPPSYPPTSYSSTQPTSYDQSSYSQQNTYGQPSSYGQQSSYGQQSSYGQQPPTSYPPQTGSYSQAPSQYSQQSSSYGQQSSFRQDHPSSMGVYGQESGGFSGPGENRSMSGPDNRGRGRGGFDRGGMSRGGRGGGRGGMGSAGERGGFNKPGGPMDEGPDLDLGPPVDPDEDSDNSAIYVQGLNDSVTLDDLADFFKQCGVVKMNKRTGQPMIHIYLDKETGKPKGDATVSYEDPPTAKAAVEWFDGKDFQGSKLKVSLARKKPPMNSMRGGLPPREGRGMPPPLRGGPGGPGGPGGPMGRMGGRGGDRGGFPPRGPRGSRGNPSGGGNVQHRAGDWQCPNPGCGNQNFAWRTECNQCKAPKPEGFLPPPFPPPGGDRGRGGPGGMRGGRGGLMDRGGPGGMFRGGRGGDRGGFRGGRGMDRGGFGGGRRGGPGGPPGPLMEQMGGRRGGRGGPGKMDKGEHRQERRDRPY

[7] = molecular target: Protein unc-119 homolog A (Homo sapiens) (UniProt Q13432); also: assay method not described here
[8] = molecular target: Heat shock protein 75 kDa, mitochondrial (Homo sapiens) (UniProt Q12931); also: assay method not described here
Sequence of Heat shock protein 75 kDa, mitochondrial (Homo sapiens) (Q12931 whole entry): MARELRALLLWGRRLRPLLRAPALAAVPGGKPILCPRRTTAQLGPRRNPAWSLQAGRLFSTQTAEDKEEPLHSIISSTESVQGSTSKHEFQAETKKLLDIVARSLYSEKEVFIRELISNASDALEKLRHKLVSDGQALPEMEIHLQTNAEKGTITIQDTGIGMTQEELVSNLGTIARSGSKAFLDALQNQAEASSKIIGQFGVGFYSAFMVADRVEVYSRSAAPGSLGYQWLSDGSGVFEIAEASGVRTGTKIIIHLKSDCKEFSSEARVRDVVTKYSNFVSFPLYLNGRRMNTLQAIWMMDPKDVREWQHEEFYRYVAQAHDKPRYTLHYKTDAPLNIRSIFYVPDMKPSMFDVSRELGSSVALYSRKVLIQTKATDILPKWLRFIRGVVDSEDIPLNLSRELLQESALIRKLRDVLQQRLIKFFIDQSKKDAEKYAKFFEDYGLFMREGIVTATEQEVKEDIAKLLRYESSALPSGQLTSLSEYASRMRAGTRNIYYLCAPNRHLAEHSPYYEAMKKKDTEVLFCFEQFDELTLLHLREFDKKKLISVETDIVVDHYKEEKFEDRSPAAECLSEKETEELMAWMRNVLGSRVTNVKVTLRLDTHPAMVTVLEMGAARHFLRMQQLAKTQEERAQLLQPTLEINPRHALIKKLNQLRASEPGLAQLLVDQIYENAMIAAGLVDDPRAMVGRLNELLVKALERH

[9] = molecular target: U2 snRNP-associated SURP motif-containing protein (Homo sapiens) (UniProt O15042); also: assay method not described here
Ephrin type-B receptor 6 = Ephrin type-B receptor 6 (Homo sapiens, UniProt O15197); test: Inhibition of Nano Luc-fused full length C-terminal EPHB6 (unknown origin) expressed in HEK293T cells using NanoGlo as substrate incubated for 2 hrs in presence of tracer by NanoBRET assay; type: cell-based
[10] = molecular target: Replication factor C subunit 3 (Homo sapiens) (UniProt P40938); also: assay method not described here
[11] = molecular target: Large ribosomal subunit protein uL16 (Homo sapiens) (UniProt P27635); also: assay method not described here
[12] = molecular target: Mitogen-activated protein kinase 3 (Homo sapiens) (UniProt P27361); also: assay method not described here
[13] = molecular target: Elongation factor 1-gamma (Homo sapiens) (UniProt P26641); also: assay method not described here
[14] = molecular target: T-complex protein 1 subunit delta (Homo sapiens) (UniProt P50991); also: assay method not described here
[15] = molecular target: Keratin, type I cytoskeletal 18 (Homo sapiens) (UniProt P05783); also: assay method not described here
[16] = molecular target: Protein transport protein Sec24C (Homo sapiens) (UniProt P53992); also: assay method not described here
[17] = molecular target: Phosphoenolpyruvate carboxykinase [GTP], mitochondrial (Homo sapiens) (UniProt Q16822); also: assay method not described here
[18] = molecular target: Protein-tyrosine kinase 2-beta (Homo sapiens) (UniProt Q14289); also: assay method not described here
[19] = molecular target: MAP kinase-activated protein kinase 5 (Homo sapiens) (UniProt Q8IW41); also: assay method not described here
Sequence of MAP kinase-activated protein kinase 5 (Homo sapiens) (Q8IW41 whole entry): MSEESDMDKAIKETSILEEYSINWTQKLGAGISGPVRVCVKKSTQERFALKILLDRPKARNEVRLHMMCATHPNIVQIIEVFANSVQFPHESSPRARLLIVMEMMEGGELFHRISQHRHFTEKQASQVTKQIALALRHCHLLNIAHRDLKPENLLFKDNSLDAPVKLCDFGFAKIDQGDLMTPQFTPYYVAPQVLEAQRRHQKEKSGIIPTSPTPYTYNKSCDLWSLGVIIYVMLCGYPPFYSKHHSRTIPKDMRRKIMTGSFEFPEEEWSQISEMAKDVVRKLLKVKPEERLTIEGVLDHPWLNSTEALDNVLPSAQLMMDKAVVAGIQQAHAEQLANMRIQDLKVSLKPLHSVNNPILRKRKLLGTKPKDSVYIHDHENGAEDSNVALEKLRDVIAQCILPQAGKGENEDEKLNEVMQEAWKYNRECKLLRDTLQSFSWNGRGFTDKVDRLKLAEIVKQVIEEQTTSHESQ

[20] = molecular target: T-complex protein 1 subunit epsilon (Homo sapiens) (UniProt P48643); also: assay method not described here
[21] = molecular target: Cell division cycle protein 23 homolog (Homo sapiens) (UniProt Q9UJX2); also: assay method not described here
Sequence of Cell division cycle protein 23 homolog (Homo sapiens) (Q9UJX2 whole entry): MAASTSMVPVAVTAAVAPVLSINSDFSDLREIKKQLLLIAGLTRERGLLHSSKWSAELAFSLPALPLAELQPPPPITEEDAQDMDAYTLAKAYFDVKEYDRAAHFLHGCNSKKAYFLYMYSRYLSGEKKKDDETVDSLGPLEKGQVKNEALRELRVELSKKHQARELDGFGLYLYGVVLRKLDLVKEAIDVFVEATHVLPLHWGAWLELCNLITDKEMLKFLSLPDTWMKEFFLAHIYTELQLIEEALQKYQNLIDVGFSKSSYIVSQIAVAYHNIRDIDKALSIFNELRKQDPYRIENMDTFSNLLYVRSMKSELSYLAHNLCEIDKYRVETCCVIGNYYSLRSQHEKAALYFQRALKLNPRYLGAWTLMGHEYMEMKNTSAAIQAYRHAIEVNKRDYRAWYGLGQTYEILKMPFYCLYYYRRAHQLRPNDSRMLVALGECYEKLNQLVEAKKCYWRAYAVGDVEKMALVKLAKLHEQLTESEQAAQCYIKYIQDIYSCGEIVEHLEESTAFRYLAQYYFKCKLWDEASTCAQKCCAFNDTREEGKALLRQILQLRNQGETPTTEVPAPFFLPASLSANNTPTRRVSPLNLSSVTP

[22] = molecular target: Vesicle-associated membrane protein 8 (Homo sapiens) (UniProt Q9BV40); also: assay method not described here
Sequence of Vesicle-associated membrane protein 8 (Homo sapiens) (Q9BV40 whole entry): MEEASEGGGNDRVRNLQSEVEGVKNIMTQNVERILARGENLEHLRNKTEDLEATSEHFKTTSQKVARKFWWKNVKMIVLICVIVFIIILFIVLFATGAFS

[23] = molecular target: Serine/threonine-protein kinase PAK 2 (Homo sapiens) (UniProt Q13177); also: assay method not described here
[24] = molecular target: Katanin p60 ATPase-containing subunit A-like 2 (Homo sapiens) (UniProt Q8IYT4); also: assay method not described here
[25] = molecular target: Synaptosomal-associated protein 23 (Homo sapiens) (UniProt O00161); also: assay method not described here
[26] = molecular target: Equilibrative nucleobase transporter 1 (Homo sapiens) (UniProt Q8NBI5); also: assay method not described here
[27] = molecular target: ATP-dependent RNA helicase DHX15 (Homo sapiens) (UniProt O43143); also: assay method not described here
[28] = molecular target: RNA-binding protein 3 (Homo sapiens) (UniProt P98179); also: assay method not described here
Sequence of RNA-binding protein 3 (Homo sapiens) (P98179 whole entry): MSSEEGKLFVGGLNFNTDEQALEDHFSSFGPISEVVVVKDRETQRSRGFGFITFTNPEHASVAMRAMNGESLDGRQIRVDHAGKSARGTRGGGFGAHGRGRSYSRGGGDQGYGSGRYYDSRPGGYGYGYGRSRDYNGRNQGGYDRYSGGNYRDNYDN

[29] = molecular target: Small ribosomal subunit protein mS23 (Homo sapiens) (UniProt Q9Y3D9); also: assay method not described here
[30] = molecular target: Large ribosomal subunit protein uL29 (Homo sapiens) (UniProt P42766); also: assay method not described here
[31] = molecular target: Reticulon-4 (Homo sapiens) (UniProt Q9NQC3); also: assay method not described here
[32] = molecular target: Signal recognition particle 9 kDa protein (Homo sapiens) (UniProt P49458); also: assay method not described here
[33] = molecular target: Tyrosine-protein kinase ABL2 (Homo sapiens) (UniProt P42684); also: assay method not described here
Sequence of Tyrosine-protein kinase ABL2 (Homo sapiens) (P42684 whole entry): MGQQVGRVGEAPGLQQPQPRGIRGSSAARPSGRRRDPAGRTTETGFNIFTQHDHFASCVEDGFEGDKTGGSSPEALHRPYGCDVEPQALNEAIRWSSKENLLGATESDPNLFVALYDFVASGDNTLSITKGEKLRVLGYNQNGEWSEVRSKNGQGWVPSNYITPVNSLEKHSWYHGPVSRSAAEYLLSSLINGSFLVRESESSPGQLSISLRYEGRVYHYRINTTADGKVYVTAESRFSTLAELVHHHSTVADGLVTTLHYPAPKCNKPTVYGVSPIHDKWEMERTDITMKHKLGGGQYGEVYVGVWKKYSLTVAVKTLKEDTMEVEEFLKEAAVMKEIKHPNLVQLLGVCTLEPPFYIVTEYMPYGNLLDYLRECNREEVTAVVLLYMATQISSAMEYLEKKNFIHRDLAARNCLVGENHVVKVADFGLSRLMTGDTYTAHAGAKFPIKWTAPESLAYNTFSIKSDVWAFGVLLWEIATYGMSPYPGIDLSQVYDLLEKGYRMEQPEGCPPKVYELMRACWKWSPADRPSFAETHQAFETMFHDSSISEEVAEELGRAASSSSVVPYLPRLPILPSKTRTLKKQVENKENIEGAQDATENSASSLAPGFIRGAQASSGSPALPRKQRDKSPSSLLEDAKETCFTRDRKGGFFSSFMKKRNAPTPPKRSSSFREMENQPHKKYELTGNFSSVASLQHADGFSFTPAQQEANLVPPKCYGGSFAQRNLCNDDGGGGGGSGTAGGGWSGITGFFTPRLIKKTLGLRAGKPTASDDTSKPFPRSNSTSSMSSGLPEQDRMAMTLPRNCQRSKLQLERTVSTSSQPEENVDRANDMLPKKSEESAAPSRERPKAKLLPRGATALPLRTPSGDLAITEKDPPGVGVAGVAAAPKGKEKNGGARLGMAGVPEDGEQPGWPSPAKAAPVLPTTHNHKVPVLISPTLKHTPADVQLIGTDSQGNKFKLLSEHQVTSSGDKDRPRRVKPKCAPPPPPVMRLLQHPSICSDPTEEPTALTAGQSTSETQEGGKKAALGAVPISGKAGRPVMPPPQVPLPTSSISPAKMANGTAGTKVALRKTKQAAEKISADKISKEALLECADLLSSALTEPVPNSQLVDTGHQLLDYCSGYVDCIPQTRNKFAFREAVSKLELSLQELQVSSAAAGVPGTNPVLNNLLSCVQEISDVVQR

[34] = molecular target: Heterogeneous nuclear ribonucleoprotein K (Homo sapiens) (UniProt P61978); also: assay method not described here
[35] = molecular target: Protein Aster-A (Homo sapiens) (UniProt Q96CP6); also: assay method not described here
[36] = molecular target: Glutaryl-CoA dehydrogenase, mitochondrial (Homo sapiens) (UniProt Q92947); also: assay method not described here
Sequence of Glutaryl-CoA dehydrogenase, mitochondrial (Homo sapiens) (Q92947 whole entry): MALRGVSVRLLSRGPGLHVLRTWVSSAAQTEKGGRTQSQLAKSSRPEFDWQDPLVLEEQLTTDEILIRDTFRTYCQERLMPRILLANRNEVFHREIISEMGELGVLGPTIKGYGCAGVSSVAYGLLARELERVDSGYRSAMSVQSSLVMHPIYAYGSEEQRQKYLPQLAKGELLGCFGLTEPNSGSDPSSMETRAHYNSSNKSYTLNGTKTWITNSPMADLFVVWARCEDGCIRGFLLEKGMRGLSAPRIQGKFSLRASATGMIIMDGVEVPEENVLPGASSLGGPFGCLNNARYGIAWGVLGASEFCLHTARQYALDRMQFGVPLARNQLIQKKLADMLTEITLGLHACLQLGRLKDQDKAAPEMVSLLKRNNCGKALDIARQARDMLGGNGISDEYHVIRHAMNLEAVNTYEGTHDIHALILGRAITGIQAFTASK

[37] = molecular target: Bifunctional purine biosynthesis protein ATIC (Homo sapiens) (UniProt P31939); also: assay method not described here
[38] = molecular target: Large ribosomal subunit protein uL14 (Homo sapiens) (UniProt P62829); also: assay method not described here
[39] = molecular target: Phosphatidylinositol 5-phosphate 4-kinase type-2 alpha (Homo sapiens) (UniProt P48426); also: assay method not described here
[40] = molecular target: E3 ubiquitin-protein ligase synoviolin (Homo sapiens) (UniProt Q86TM6); also: assay method not described here
[41] = molecular target: GTP-binding nuclear protein Ran (Homo sapiens) (UniProt P62826); also: assay method not described here
[42] = molecular target: Integrin alpha-6 (Homo sapiens) (UniProt P23229); also: assay method not described here
[43] = molecular target: L-lactate dehydrogenase B chain (Homo sapiens) (UniProt P07195); also: assay method not described here
For ED50 in this document: assay method not described here.

## Cc1ccc(C(=O)Nc2cccc(C(F)(F)F)c2)cc1Nc1nc(-c2cccnc2)nc2nn(C)cc12
[1]
  ED50: 0.00497 µM
[2]
  ED50: 15.8 µM
[3]
  ED50: 1.3 µM
[4]
  ED50: 7.07 µM
[5]
  ED50: 0.064 µM
[6]
  ED50: 11.8 µM
[7]
  ED50: 47.8 µM
[8]
  ED50: 9 µM
[9]
  ED50: 1.91 µM
Ephrin type-B receptor 6
  IC50: > 50 µM
[10]
  ED50: 0.0505 µM
[11]
  ED50: 5.79 µM
[12]
  ED50: 2500 µM
[13]
  ED50: 0.000491 µM
[14]
  ED50: 26.8 µM
[15]
  ED50: 0.581 µM
[16]
  ED50: 1.46 µM
[17]
  ED50: 0.429 µM
[18]
  ED50: 36.6 µM
[19]
  ED50: 0.047 µM
[20]
  ED50: 0.0516 µM
[21]
  ED50: 2.59 µM
[22]
  ED50: 4.59 µM
[23]
  ED50: 42.5 µM
[24]
  ED50: 0.00647 µM
[25]
  ED50: 0.416 µM
[26]
  ED50: 33.9 µM
[27]
  ED50: 23 µM
[28]
  ED50: 9.45 µM
[29]
  ED50: 11.4 µM
[30]
  ED50: 0.00771 µM
[31]
  ED50: 3.55 µM
[32]
  ED50: 2440 µM
[33]
  ED50: 2.04 µM
[34]
  ED50: 0.184 µM
[35]
  ED50: 0.495 µM
[36]
  ED50: 0.169 µM
[37]
  ED50: 0.073 µM
[38]
  ED50: 7.5 µM
[39]
  ED50: 83.4 µM
[40]
  ED50: 0.00734 µM
[41]
  ED50: 0.116 µM
[42]
  ED50: 7.19 µM
Homo sapiens
  ED50: 233 µM
[43]
  ED50: 9.99 µM

## Cc1ccc(C(=O)Nc2cccc(C(F)(F)F)c2)cc1Nc1nc(-c2cccnc2)nc2c1cnn2C
[1]
  ED50: 7.62 µM
[2]
  ED50: 6.61 µM
[3]
  ED50: 0.97 µM
[4]
  ED50: 0.596 µM
[5]
  ED50: 18.8 µM
[6]
  ED50: 54.1 µM
[7]
  ED50: 0.46 µM
[8]
  ED50: 7.63 µM
[9]
  ED50: 0.0194 µM
Ephrin type-B receptor 6
  IC50: 4.48 µM
[10]
  ED50: 0.485 µM
[11]
  ED50: 0.0767 µM
[12]
  ED50: 0.0457 µM
[13]
  ED50: 0.0114 µM
[14]
  ED50: 1.63 µM
[15]
  ED50: 7.35 µM
[16]
  ED50: 0.0116 µM
[17]
  ED50: 0.398 µM
[18]
  ED50: 0.433 µM
[19]
  ED50: 26.2 µM
[20]
  ED50: 0.000216 µM
[21]
  ED50: 0.0535 µM
[22]
  ED50: 1.84 µM
[23]
  ED50: 19.6 µM
[24]
  ED50: 0.0376 µM
[25]
  ED50: 11.2 µM
[26]
  ED50: 12.9 µM
[27]
  ED50: 0.372 µM
[28]
  ED50: 13.5 µM
[29]
  ED50: 20.2 µM
[30]
  ED50: 64.9 µM
[31]
  ED50: 0.00531 µM
[32]
  ED50: 5.32 µM
[33]
  ED50: 1.06 µM
[34]
  ED50: 0.0564 µM
[35]
  ED50: 29.6 µM
[36]
  ED50: 7.4 µM
[37]
  ED50: 3.39 µM
[38]
  ED50: 11.7 µM
[39]
  ED50: 0.0993 µM
[40]
  ED50: 0.162 µM
[41]
  ED50: 4.29 µM
[42]
  ED50: 0.0163 µM
Homo sapiens
  ED50: 0.0636 µM
[43]
  ED50: 0.00831 µM
